In PubChem BioAssay AID248 (DTP/NCI, 2004):
“And” between values parts separate entries of the source, which are not always exact repeats. Equal values may be shown once. Inconclusive results and toxic doses are left out. Rule as the data show it: active = T/C of 150% or more; inactive = T/C below 125%.

System: L1210 leukemia ip in BDF1 mice, survival T/C
Experiment: NCI In Vivo Anticancer Drug Screen. Data for tumor model L1210 Leukemia (intraperitoneal) in B6D2F1 (BDF1) mice
Conditions: endpoint: mean survival time, higher = longer survival
Method in brief: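 Tumor cells were implanted, animals were treated, and survival was followed. The result divides the treated measurement by the vehicle-control measurement.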

[1] = dose: 100.0 mg/kg/injection, schedule: Q01DX009 (ip), vehicle: saline
[2] = dose: 100.0 mg/kg/injection, schedule: Q04DX003 (ip), vehicle: saline
[3] = dose: 200.0 mg/kg/injection, schedule: Q01DX009 (ip), vehicle: saline
[4] = dose: 200.0 mg/kg/injection, schedule: Q04DX003 (ip), vehicle: saline
[5] = dose: 400.0 mg/kg/injection, schedule: Q01DX009 (ip), vehicle: saline
[6] = dose: 400.0 mg/kg/injection, schedule: Q04DX003 (ip), vehicle: saline
[7] = dose: 400.0 mg/kg/injection, schedule: Q04DX003 (ip), vehicle: Klucel (hydroxypropylcellulose) (HPC)
[8] = dose: 50.0 mg/kg/injection, schedule: Q01DX009 (ip), vehicle: Klucel (hydroxypropylcellulose) (HPC)
[9] = dose: 25.0 mg/kg/injection, schedule: Q01DX009 (ip), vehicle: saline
[10] = dose: 50.0 mg/kg/injection, schedule: Q01DX009 (ip), vehicle: saline
[11] = dose: 25.0 mg/kg/injection, schedule: Q04DX003 (ip), vehicle: Klucel (hydroxypropylcellulose) (HPC)
[12] = dose: 50.0 mg/kg/injection, schedule: Q04DX003 (ip), vehicle: Klucel (hydroxypropylcellulose) (HPC)
[13] = dose: 100.0 mg/kg/injection, schedule: Q04DX003 (ip), vehicle: Klucel (hydroxypropylcellulose) (HPC)
[14] = dose: 200.0 mg/kg/injection, schedule: Q04DX003 (ip), vehicle: Klucel (hydroxypropylcellulose) (HPC)
[15] = dose: 100.0 mg/kg/injection, schedule: Q01DX001 (ip), vehicle: carboxymethylcellulose (CMC)
[16] = dose: 200.0 mg/kg/injection, schedule: Q01DX001 (ip), vehicle: carboxymethylcellulose (CMC)
[17] = dose: 400.0 mg/kg/injection, schedule: Q01DX001 (ip), vehicle: carboxymethylcellulose (CMC)
[18] = dose: 100.0 mg/kg/injection, schedule: Q01DX001 (ip), vehicle: saline
[19] = dose: 200.0 mg/kg/injection, schedule: Q01DX001 (ip), vehicle: saline
[20] = dose: 400.0 mg/kg/injection, schedule: Q01DX001 (ip), vehicle: saline

Measured: T/C

CC(CCc1ccccc1)NN (configuration not stated)
inactive: dose: 3.12 mg/kg/injection, schedule: Q01DX009 (ip), vehicle: saline with Tween-80 98 % of control | dose: 6.25 mg/kg/injection, schedule: Q01DX009 (ip), vehicle: saline with Tween-80 96 % of control | dose: 12.5 mg/kg/injection, schedule: Q01DX009 (ip), vehicle: saline with Tween-80 90 % of control | dose: 25.0 mg/kg/injection, schedule: Q01DX009 (ip), vehicle: saline with Tween-80 96 % of control | dose: 25.0 mg/kg/injection, schedule: Q04DX003 (ip), vehicle: saline 100 % of control | dose: 50.0 mg/kg/injection, schedule: Q01DX009 (ip), vehicle: saline with Tween-80 91 % of control | dose: 50.0 mg/kg/injection, schedule: Q04DX003 (ip), vehicle: saline 100 % of control

CCCCCCCCCC(=O)CCC
inactive: [1] 100 % of control | [2] 111 % of control | [3] 96 % of control | [4] 97 % of control | [5] 98 % of control | [6] 105 % of control

Nc1cc2c3c(cccc3c1Br)C(=O)N(Cc1ccccc1)C2=O
inactive: [7] 88 % of control

Nc1cccc2c1C(=O)c1ccccc1-2
inactive: dose: 100.0 mg/kg/injection, schedule: Q01DX009 (ip), vehicle: saline with Tween-80 97 % of control | dose: 200.0 mg/kg/injection, schedule: Q01DX009 (ip), vehicle: saline with Tween-80 103 % of control | dose: 400.0 mg/kg/injection, schedule: Q01DX009 (ip), vehicle: saline with Tween-80 97 % of control

CC(N)C(=O)NCC(=O)NCC(=O)O (configuration not stated)
inactive: [1] 103 % of control | [2] 100 % of control | [3] 96 % of control | [4] 96 % of control | [5] 98 % of control | [6] 94 % of control

Cc1ccc(S(=O)(=O)N(CCCc2c(C)nc(N)[nH]c2=O)c2ccccc2)cc1
inactive: [8] 102 % of control | dose: 100.0 mg/kg/injection, schedule: Q01DX009 (ip), vehicle: Klucel (hydroxypropylcellulose) (HPC) 91 % of control | dose: 200.0 mg/kg/injection, schedule: Q01DX009 (ip), vehicle: Klucel (hydroxypropylcellulose) (HPC) 95 % of control

CC(=O)Nc1nc2[nH]ccc2c(=O)[nH]1
inactive: dose: 75.0 mg/kg/injection, schedule: Q01DX001 (ip), vehicle: other 106 % of control | dose: 150.0 mg/kg/injection, schedule: Q01DX001 (ip), vehicle: other 104 % of control | dose: 300.0 mg/kg/injection, schedule: Q01DX001 (ip), vehicle: other 103 % of control

CCN(CC)CCOC(=S)Nc1ccccc1
inactive: [9] 100 % of control | [10] 109 % of control | [1] 96 % of control and 105 % of control

CNC(=O)NCC1OC(OC2(CO)OC(CNC(=O)NC)C(O)C2O)C(O)C(O)C1O (configuration not stated)
inactive: [10] 91 % of control | [1] 98 % of control | [3] 98 % of control

NC(=O)Nc1ccc(/C=C2\C=Cc3ccccc32)cc1
inactive: dose: 75.0 mg/kg/injection, schedule: Q01DX001 (ip), vehicle: saline 96 % of control | dose: 150.0 mg/kg/injection, schedule: Q01DX001 (ip), vehicle: saline 93 % of control | dose: 300.0 mg/kg/injection, schedule: Q01DX001 (ip), vehicle: saline 94 % of control

O=C(CCCN1CCC(n2c(=O)[nH]c3ccccc32)CC1)c1ccc(F)cc1
inactive: dose: 6.25 mg/kg/injection, schedule: Q01DX009 (ip), vehicle: Klucel (hydroxypropylcellulose) (HPC) 92 % of control | dose: 12.5 mg/kg/injection, schedule: Q01DX009 (ip), vehicle: Klucel (hydroxypropylcellulose) (HPC) 113 % of control | dose: 12.5 mg/kg/injection, schedule: Q01DX009 (ip), vehicle: saline 102 % of control | dose: 25.0 mg/kg/injection, schedule: Q01DX009 (ip), vehicle: Klucel (hydroxypropylcellulose) (HPC) 120 % of control | [9] 110 % of control | [11] 98 % of control and 90 % of control | [8] 96 % of control | [10] 93 % of control | [12] 96 % of control | [1] 93 % of control | [13] 91 % of control and 111 % of control | [14] 110 % of control | [7] 97 % of control

COc1cc(NC(=O)Nc2ccc(Cl)c(C(F)(F)F)c2)ccc1NC(C)=O
inactive: dose: 50.0 mg/kg/injection, schedule: Q01DX009 (ip), vehicle: carboxymethylcellulose (CMC) 96 % of control and 103 % of control | [15] 103 % of control and 105 % of control | dose: 100.0 mg/kg/injection, schedule: Q04DX002 (ip), vehicle: carboxymethylcellulose (CMC) 94 % of control | dose: 100.0 mg/kg/injection, schedule: Q04DX003 (ip), vehicle: carboxymethylcellulose (CMC) 101 % of control and 105 % of control | [16] 100 % of control and 102 % of control | dose: 200.0 mg/kg/injection, schedule: Q04DX002 (ip), vehicle: carboxymethylcellulose (CMC) 96 % of control and 90 % of control | dose: 200.0 mg/kg/injection, schedule: Q04DX003 (ip), vehicle: carboxymethylcellulose (CMC) 92 % of control and 99 % of control | [17] 97 % of control and 105 % of control | dose: 400.0 mg/kg/injection, schedule: Q04DX002 (ip), vehicle: carboxymethylcellulose (CMC) 96 % of control and 90 % of control | dose: 400.0 mg/kg/injection, schedule: Q04DX003 (ip), vehicle: carboxymethylcellulose (CMC) 92 % of control

BrC1(Br)C2CC3C(CC21)C3(Br)Br (configuration not stated)
inactive: dose: 100.0 mg/kg/injection, schedule: Q01DX001 (ip), vehicle: saline sonified 98 % of control | dose: 200.0 mg/kg/injection, schedule: Q01DX001 (ip), vehicle: saline sonified 96 % of control | dose: 400.0 mg/kg/injection, schedule: Q01DX001 (ip), vehicle: saline sonified 98 % of control

CC(=O)[O][Hg][c]1s[c]([Hg][O]C(C)=O)[c]([Hg][O]C(C)=O)[c]1[Hg][O]C(C)=O
inactive: dose: 6.25 mg/kg/injection, schedule: Q04DX003 (ip), vehicle: Klucel (hydroxypropylcellulose) (HPC) 104 % of control | dose: 12.5 mg/kg/injection, schedule: Q04DX003 (ip), vehicle: Klucel (hydroxypropylcellulose) (HPC) 102 % of control | [11] 95 % of control | [12] 101 % of control

C/C(=N\O)c1ccc2nc(C)cc(Cl)c2c1
inactive: [18] 102 % of control | [19] 109 % of control | [20] 95 % of control

COP1(=O)OCC(C)O1 (configuration not stated)
inactive: [18] 113 % of control | [19] 102 % of control | [20] 94 % of control

O=C(OCC1OC(n2c(=O)[nH]c(=S)c3ncsc32)C(OC(=O)c2ccccc2)C1OC(=O)c1ccccc1)c1ccccc1 (configuration not stated)
inactive: dose: 100.0 mg/kg/injection, schedule: Q01DX005 (ip), vehicle: saline 95 % of control | dose: 200.0 mg/kg/injection, schedule: Q01DX005 (ip), vehicle: saline 91 % of control

O=S(=O)(O)c1ccc(CCCCCCl)cc1
inactive: dose: 100.0 mg/kg/injection, schedule: Q01DX009 (ip), vehicle: saline sonified 107 % of control | [2] 95 % of control | dose: 200.0 mg/kg/injection, schedule: Q01DX009 (ip), vehicle: saline sonified 98 % of control | [4] 100 % of control | dose: 400.0 mg/kg/injection, schedule: Q01DX009 (ip), vehicle: saline sonified 101 % of control | [6] 96 % of control

C[n+]1cc(I)cc2ccccc21
inactive: dose: 50.0 mg/kg/injection, schedule: Q01DX001 (ip), vehicle: carboxymethylcellulose (CMC) 97 % of control | [15] 103 % of control | [16] 103 % of control | [17] 101 % of control

CC1(C)OC2CS(=O)(=O)CC2O1 (configuration not stated)
inactive: dose: 100.0 mg/kg/injection, schedule: Q04DX003 (ip), vehicle: saline with Tween-80 100 % of control | dose: 200.0 mg/kg/injection, schedule: Q04DX003 (ip), vehicle: saline with Tween-80 105 % of control | dose: 400.0 mg/kg/injection, schedule: Q04DX003 (ip), vehicle: saline with Tween-80 102 % of control

CS(=O)(=O)OCC1CCc2[nH]c3ccccc3c2C1 (configuration not stated)
inactive: [13] 108 % of control | [14] 97 % of control | [7] 97 % of control
